Data: ChEMBL document CHEMBL3525924, “Cytochrome P450 3A-mediated microsomal biotransformation of 1α,25-dihydroxyvitamin D3 in mouse and human liver: drug-related induction and inhibition of catabolism” (Drug Metab Dispos, 2012)

Legend:
Format in all cases: ADME
Liver microsome [1] = test: Drug metabolism in human liver microsomes assessed as assessed as metabolite formation at 20 uM after 30 mins by LC/MS analysis in presence of NADPH; conditions: 0.5 h
[2] = Drug metabolism in prednisone treated CD1 mouse liver microsomes assessed as 1alpha,23S,25(OH)3D3 metabolite formation at 20 uM after 30 mins by LC/MS analysis in presence of NADPH; conditions: 0.5 h
[3] = Drug metabolism in prednisone treated CD1 mouse liver microsomes assessed as 1alpha,24R,25(OH)3D3 metabolite formation at 20 uM after 30 mins by LC/MS analysis in presence of NADPH; conditions: 0.5 h
[4] = Drug metabolism in prednisone treated CD1 mouse liver microsomes assessed as 1alpha,24S,25(OH)3D3 metabolite formation at 20 uM after 30 mins by LC/MS analysis in presence of NADPH; conditions: 0.5 h
[5] = Drug metabolism in prednisone treated CD1 mouse liver microsomes assessed as 1alpha,23R,25(OH)3D3 metabolite formation at 20 uM after 30 mins by LC/MS analysis in presence of NADPH; conditions: 0.5 h
[6] = Drug metabolism in prednisone treated CD1 mouse liver microsomes assessed as metabolite formation at 20 uM after 30 mins by LC/MS analysis in presence of NADPH and CYP2E inhibitor di-ethyldithiocarbamate; conditions: 0.5 h
[7] = Drug metabolism in dexamethasone treated CD1 mouse liver microsomes assessed as metabolite formation at 20 uM after 30 mins by LC/MS analysis in presence of NADPH and CYP2E inhibitor di-ethyldithiocarbamate; conditions: 0.5 h
[8] = Drug metabolism in CD1 mouse liver microsomes assessed as metabolite formation at 20 uM after 30 mins by LC/MS analysis in presence of NADPH and CYP2E inhibitor di-ethyldithiocarbamate; conditions: 0.5 h
[9] = Drug metabolism in prednisone treated CD1 mouse liver microsomes assessed as metabolite formation at 20 uM after 30 mins by LC/MS analysis in presence of NADPH and CYP2A inhibitor 8-methoxypsoralen; conditions: 0.5 h
[10] = Drug metabolism in dexamethasone treated CD1 mouse liver microsomes assessed as metabolite formation at 20 uM after 30 mins by LC/MS analysis in presence of NADPH and CYP2A inhibitor 8-methoxypsoralen; conditions: 0.5 h
[11] = Drug metabolism in CD1 mouse liver microsomes assessed as metabolite formation at 20 uM after 30 mins by LC/MS analysis in presence of NADPH and CYP2A inhibitor 8-methoxypsoralen; conditions: 0.5 h
[12] = Drug metabolism in prednisone treated CD1 mouse liver microsomes assessed as metabolite formation at 20 uM after 30 mins by LC/MS analysis in presence of NADPH and CYP2B inhibitor orphenadrine; conditions: 0.5 h
[13] = Drug metabolism in dexamethasone treated CD1 mouse liver microsomes assessed as metabolite formation at 20 uM after 30 mins by LC/MS analysis in presence of NADPH and CYP2B inhibitor orphenadrine; conditions: 0.5 h
[14] = Drug metabolism in CD1 mouse liver microsomes assessed as metabolite formation at 20 uM after 30 mins by LC/MS analysis in presence of NADPH and CYP2B inhibitor orphenadrine; conditions: 0.5 h
[15] = Drug metabolism in dexamethasone treated CD1 mouse liver microsomes assessed as 1alpha,24S,25(OH)3D3 metabolite formation at 20 uM after 30 mins by LC/MS analysis in presence of NADPH; conditions: 0.5 h
[16] = Drug metabolism in dexamethasone treated CD1 mouse liver microsomes assessed as 1alpha,23R,25(OH)3D3 metabolite formation at 20 uM after 30 mins by LC/MS analysis in presence of NADPH; conditions: 0.5 h
[17] = Drug metabolism in dexamethasone treated CD1 mouse liver microsomes assessed as depletion of parent compound at 1 uM after 30 mins by LC/MS analysis in presence of NADPH; conditions: liver microsomes from dexamethasone-treated mice, read-out: Drug metabolism
[18] = Drug metabolism in prednisone treated CD1 mouse liver microsomes assessed as depletion of parent compound at 1 uM after 30 mins by LC/MS analysis in presence of NADPH; conditions: 0.5 h
[19] = Drug metabolism in CD1 mouse liver microsomes assessed as depletion of parent compound at 1 uM after 30 mins by LC/MS analysis in presence of NADPH; conditions: 0.5 h
[20] = Drug metabolism in prednisone treated CD1 mouse liver microsomes assessed as metabolite formation at 20 uM after 30 mins by LC/MS analysis in presence of NADPH and CYP450 inhibitor SKF525A; conditions: 0.5 h
[21] = Drug metabolism in dexamethasone treated CD1 mouse liver microsomes assessed as metabolite formation at 20 uM after 30 mins by LC/MS analysis in presence of NADPH and CYP450 inhibitor SKF525A; conditions: 0.5 h
[22] = Drug metabolism in CD1 mouse liver microsomes assessed as metabolite formation at 20 uM after 30 mins by LC/MS analysis in presence of NADPH and CYP450 inhibitor SKF525A; conditions: 0.5 h
Liver microsome [23] = test: Drug metabolism in human liver microsomes assessed as metabolite formation at 20 uM after 30 mins by LC/MS analysis in presence of NADPH and ketoconazole; conditions: 0.5 h
Liver microsome [24] = test: Drug metabolism in human liver microsomes assessed as metabolite formation at 20 uM after 30 mins by LC/MS analysis in presence of NADPH and docetaxel; conditions: 0.5 h
Liver microsome [25] = test: Drug metabolism in human liver microsomes assessed as metabolite formation at 20 uM after 30 mins by LC/MS analysis in presence of NADPH and ritonavir; conditions: 0.5 h
Liver microsome [26] = test: Drug metabolism in human liver microsomes assessed as metabolite formation at 20 uM after 30 mins by LC/MS analysis in presence of NADPH and tamoxifen; conditions: 0.5 h
Liver microsome [27] = test: Drug metabolism in human liver microsomes assessed as metabolite formation at 20 uM after 30 mins by LC/MS analysis in presence of NADPH and paclitaxel; conditions: 0.5 h
[28] = Drug metabolism in prednisone treated CD1 mouse liver microsomes assessed as metabolite formation at 20 uM after 30 mins by LC/MS analysis in presence of NADPH and CYP1A2 inhibitor furafyline; conditions: 0.5 h
[29] = Drug metabolism in dexamethasone treated CD1 mouse liver microsomes assessed as metabolite formation at 20 uM after 30 mins by LC/MS analysis in presence of NADPH and CYP1A2 inhibitor furafyline; conditions: 0.5 h
[30] = Drug metabolism in CD1 mouse liver microsomes assessed as metabolite formation at 20 uM after 30 mins by LC/MS analysis in presence of NADPH and CYP1A2 inhibitor furafyline; conditions: 0.5 h
[31] = Drug metabolism in prednisone treated CD1 mouse liver microsomes assessed as metabolite formation at 20 uM after 30 mins by LC/MS analysis in presence of NADPH and CYP1A1 inhibitor alpha-naphthoflavone; conditions: 0.5 h
[32] = Drug metabolism in dexamethasone treated CD1 mouse liver microsomes assessed as metabolite formation at 20 uM after 30 mins by LC/MS analysis in presence of NADPH and CYP1A1 inhibitor alpha-naphthoflavone; conditions: 0.5 h
[33] = Drug metabolism in CD1 mouse liver microsomes assessed as metabolite formation at 20 uM after 30 mins by LC/MS analysis in presence of NADPH and CYP1A1 inhibitor alpha-naphthoflavone; conditions: 0.5 h
[34] = Drug metabolism in prednisone treated CD1 mouse liver microsomes assessed as metabolite formation at 20 uM after 30 mins by LC/MS analysis in presence of NADPH and CYP2C inhibitor sulfaphenazole; conditions: 0.5 h
[35] = Drug metabolism in dexamethasone treated CD1 mouse liver microsomes assessed as metabolite formation at 20 uM after 30 mins by LC/MS analysis in presence of NADPH and CYP2C inhibitor sulfaphenazole; conditions: 0.5 h
[36] = Drug metabolism in CD1 mouse liver microsomes assessed as metabolite formation at 20 uM after 30 mins by LC/MS analysis in presence of NADPH and CYP2C inhibitor sulfaphenazole; conditions: 0.5 h
[37] = Drug metabolism in prednisone treated CD1 mouse liver microsomes assessed as metabolite formation at 20 uM after 30 mins by LC/MS analysis in presence of NADPH and CYP2D inhibitor quinine; conditions: 0.5 h
[38] = Drug metabolism in dexamethasone treated CD1 mouse liver microsomes assessed as metabolite formation at 20 uM after 30 mins by LC/MS analysis in presence of NADPH and CYP2D inhibitor quinine; conditions: 0.5 h
[39] = Drug metabolism in CD1 mouse liver microsomes assessed as metabolite formation at 20 uM after 30 mins by LC/MS analysis in presence of NADPH and CYP2D inhibitor quinine; conditions: 0.5 h

C=C1/C(=C\C=C2/CCC[C@]3(C)[C@@H]([C@H](C)CCCC(C)(C)O)CC[C@@H]23)C[C@@H](O)C[C@@H]1O [CALCITRIOL]
Drug metabolism (Liver microsome [1]): metabolite_detected
Drug metabolism [2]: metabolite_detected
Drug metabolism [3]: metabolite_detected
Drug metabolism [4]: metabolite_detected
Drug metabolism [5]: metabolite_detected
Drug metabolism [6]: metabolite_detected
Drug metabolism [7]: metabolite_detected
Drug metabolism [8]: metabolite_detected
Drug metabolism [9]: metabolite_detected
Drug metabolism [10]: metabolite_detected
Drug metabolism [11]: metabolite_detected
Drug metabolism [12]: metabolite_detected
Drug metabolism [13]: metabolite_detected
Drug metabolism [14]: metabolite_detected
Drug metabolism [15]: metabolite_detected
Drug metabolism [16]: metabolite_detected
metabolised at 0.5 h, 1 µM [17]: 70%
Drug metabolism [18]: metabolite_not_detected
Drug metabolism [19]: metabolite_not_detected
Drug metabolism [20]: metabolite_not_detected
Drug metabolism [21]: metabolite_not_detected
Drug metabolism [22]: metabolite_not_detected
Drug metabolism (Liver microsome [23]): metabolite_not_detected
Drug metabolism (Liver microsome [24]): metabolite_not_detected
Drug metabolism (Liver microsome [25]): metabolite_not_detected
Drug metabolism (Liver microsome [26]): metabolite_not_detected
Drug metabolism (Liver microsome [27]): metabolite_not_detected
Drug metabolism [28]: metabolite_detected
Drug metabolism [29]: metabolite_detected
Drug metabolism [30]: metabolite_detected
Drug metabolism [31]: metabolite_detected
Drug metabolism [32]: metabolite_detected
Drug metabolism [33]: metabolite_detected
Drug metabolism [34]: metabolite_detected
Drug metabolism [35]: metabolite_detected
Drug metabolism [36]: metabolite_detected
Drug metabolism [37]: metabolite_detected
Drug metabolism [38]: metabolite_detected
Drug metabolism [39]: metabolite_detected
